Patent publication US20260207704A1, “STAPLED PEPTIDES AND METHODS THEREOF” (priority 2022, published 2026)

tested on: DLD1 reporter; assay: reporter assay (DLD1 reporter assay); assay type: cell-based; conditions: read-out: DLD1 4% Abs IC50; DLD1 4%
Source text: Various technologies can be utilized for characterizing and/or assessing provided technologies (e.g., agents (e.g., various peptides), compositions, methods, etc.) in accordance with the present disclosure. As described herein, in some embodiments, a useful technology is or comprises fluorescence polarization. In some embodiments, a useful technology assesses LogP or LogD. In some embodiments, a useful technology is or comprises a CHI LogD assay. In some embodiments, a useful technology assesses solubility. In some embodiments, a useful technology is or comprises NanoBRET. In some embodiments, a useful technology is or comprises a reporter assay (e.g., DLD1 reporter assay). In some embodiments, a useful technology is or comprises alphascreen. Certain useful protocols are described in the Examples. Those skilled in the art appreciate that suitable adjustments may be made to such protocols, e.g., according to specific conditions, agents, purposes, etc.
Various technologies can be utilized to assess technologies of the present disclosure. For example, in some embodiments, solubility, LogD, interactions with targets, etc. of various agents such as stapled peptides were assessed using technologies described in WO 2022/261257 (e.g., those in its Examples). In some embodiments, solubility, shake flask LogD, and binding to beta-catenin were assessed. In some embodiments, an assay for assessing interactions, e.g., with beta-catenin, was fluorescence polarization as described in WO 2022/261257. In some embodiments, an assay was Nano-BRET target engagement assay that assessed beta-catenin/TCF4 engagement as described in WO 2022/261257. In some embodiments, an assay was a reporter assay as reported in Example 4 of WO 2022/261257. In some embodiments, an assay was a COLO320DM proliferation assay as reported in Example 4 of WO 2022/261257.

**Q.** Which IC50 does the source give for `CC(=O)N1CCC[C@]12CC=CCCCC1(CCCC=CCCCOC(=O)N3CC[C@@]4(C3)NC(=O)[C@H](CCCCN(C(C)C)C(=O)CCC[C@@H](C(=O)N[C@@H](C)C(N)=O)NC(=O)[C@H](Cc3csc5ccccc35)NC(=O)[C@H](Cc3ccsc3)NC4=O)NC(=O)[C@H](Cc3ccccc3)NC(=O)[C@H](C)NC(=O)[C@H](C)NC(=O)[C@H](Cc3cccc(C(=O)O)c3)NC(=O)[C@H](CC(=O)O)NC1=O)NC(=O)[C@H](CC(C)(C)C)NC(=O)[C@H](CC(=O)O)NC2=O` (relative stereo) [I-187, Ac-PL3-Asp-Npg-B5-Asp-3COOHF-Ala-Ala-Phe-iPrLys*3-PyrS2-3Thi-BztA-hGlnR*3-Ala-NH2] here?
**A.** Its IC50 is greater than 5 µM.

**Q.** With `CC(=O)N1CCC[C@]12CC=CCCCC1(CCCC=CCCCOC(=O)N3CC[C@@]4(C3)NC(=O)[C@H](CCCCNC(=O)CC[C@@H](C(=O)N[C@@H](CC(C)C)C(N)=O)NC(=O)[C@H](Cc3csc5ccccc35)NC(=O)[C@H](Cc3ccccc3C(F)(F)F)NC4=O)NC(=O)[C@H](Cc3ccccc3)NC(=O)[C@H](C)NC(=O)[C@H](CC(C)(C)C)NC(=O)[C@H](Cc3cccc(C(=O)O)c3)NC(=O)[C@H](CC(=O)O)NC1=O)NC(=O)[C@H](CC(C)(C)C)NC(=O)[C@H](CC(=O)O)NC2=O` (single isomer, unassigned) [I-109, Ac-PL3-Asp-Npg-B5-Asp-3COOHF-Npg-Ala-Phe-Lys*3-PyrS2-2F3MeF-BztA-GlnR*3-Leu-NH2] as the compound, how does the IC50 read?
**A.** Its IC50 is 1 to 5 µM.

**Q.** With `CC(=O)N1CCC[C@]12CC=CCCCC1(CCCC=CCCCOC(=O)N3CC[C@@]4(C3)NC(=O)[C@H](Cc3cn(nn3)CCCC[C@@H](C(N)=O)NC(=O)[C@H](Cc3csc5ccccc35)NC(=O)[C@H](Cc3ccsc3)NC4=O)NC(=O)[C@H](Cc3ccccc3)NC(=O)[C@H](C)NC(=O)[C@H](C)NC(=O)[C@H](Cc3cccc(C(=O)O)c3)NC(=O)[C@H](CC(=O)O)NC1=O)NC(=O)[C@H](CC(C)(C)C)NC(=O)[C@H](CC(=O)O)NC2=O` (stereo partly drawn) [I-24, Ac-PL3-Asp-Npg-B5-Asp-3COOHF-Ala-Ala-Phe-sAla*3-PyrS2-3Thi-BztA-TriAzLys*3-NH2] as the compound, how does the IC50 read?
**A.** Its IC50 is 1 to 5 µM.

**Q.** How did the IC50 turn out when `CC(=O)N1CCC[C@]12CC=CCCCC1(CCCC=CCCCOC(=O)N3CC[C@@]4(C3)NC(=O)[C@H](CCCCNC(=O)CC[C@@H](C(=O)N[C@@H](CC(C)C)C(=O)N[C@@H](CO)C(N)=O)NC(=O)[C@H](Cc3csc5ccccc35)NC(=O)[C@H](Cc3ccccc3C(F)(F)F)NC4=O)NC(=O)[C@H](Cc3ccccc3)NC(=O)[C@H](C)NC(=O)C3(CCCC3)NC(=O)[C@H](Cc3cccc(C(=O)O)c3)NC(=O)[C@H](CC(=O)O)NC1=O)NC(=O)[C@H](CC(C)(C)C)NC(=O)[C@H](CC(=O)O)NC2=O` (relative stereo) [I-141, Ac-PL3-Asp-Npg-B5-Asp-3COOHF-CyLeu-Ala-Phe-Lys*3-PyrS2-2F3MeF-BztA-GlnR*3-Leu-Ser-NH2] was run?
**A.** Its IC50 is no more than 1 µM.

**Q.** Which IC50 does the source give for `CC(=O)N1CCC[C@]12CC=CCCCC1(CCCC=CCCCOC(=O)N3CC[C@@]4(C3)NC(=O)[C@H](CCCCNC(=O)CC[C@@H](C(=O)N[C@@H](CC(C)C)C(=O)N[C@@H](CO)C(N)=O)NC(=O)[C@H](Cc3csc5ccccc35)NC(=O)[C@H](Cc3ccccc3C(F)(F)F)NC4=O)NC(=O)[C@H](Cc3ccccc3)NC(=O)[C@H](C)NC(=O)C3(CC3)NC(=O)[C@H](Cc3cccc(C(=O)O)c3)NC(=O)[C@H](CC(=O)O)NC1=O)NC(=O)[C@H](CC(C)(C)C)NC(=O)[C@H](CC(=O)O)NC2=O` (relative stereo) [I-139, Ac-PL3-Asp-Npg-B5-Asp-3COOHF-Cpg-Ala-Phe-Lys*3-PyrS2-2F3MeF-BztA-GlnR*3-Leu-Ser-NH2] here?
**A.** The IC50 was no more than 1 µM.

**Q.** With `CC(=O)N1CCC[C@]12CC=CCCCC1(CCCC=CCCCOC(=O)N3CC[C@@]4(C3)NC(=O)[C@H](CCCCNC(=O)CC[C@@H](C(=O)N[C@@H](CC(C)C)C(=O)N[C@@H](CO)C(N)=O)NC(=O)[C@H](Cc3csc5ccccc35)NC(=O)[C@H](Cc3ccccc3C(F)(F)F)NC4=O)NC(=O)[C@H](Cc3ccccc3)NC(=O)[C@H](C)NC(=O)[C@H](C)NC(=O)[C@H](Cc3cccc(C(=O)O)c3)NC(=O)[C@H](CC(=O)O)NC1=O)NC(=O)[C@H](CC(C)(C)C)NC(=O)[C@H](CC(N)=O)NC2=O` (relative stereo) [I-142, Ac-PL3-Asn-Npg-B5-Asp-3COOHF-Ala-Ala-Phe-Lys*3-PyrS2-2F3MeF-BztA-GlnR*3-Leu-Ser-NH2] as the compound, how does the IC50 read?
**A.** The IC50 was greater than 5 µM.

**Q.** For `CC(=O)N1CCC[C@]12CC=CCCCC1(CCCC=CCCCOC(=O)N3CC[C@@]4(C3)NC(=O)[C@H](CCCCNC(=O)CC[C@@H](C(=O)N[C@@H](C)C(N)=O)NC(=O)[C@H](Cc3csc5ccccc35)NC(=O)[C@H](Cc3ccccc3C(F)(F)F)NC4=O)NC(=O)[C@H](Cc3ccccc3)NC(=O)[C@H](C)NC(=O)C(C)(C)NC(=O)[C@H](CN(CC(=O)O)CC(F)(F)F)NC(=O)[C@H](CC(=O)O)NC1=O)NC(=O)[C@H](CC(C)(C)C)NC(=O)[C@H](CC(=O)O)NC2=O` (single isomer, unassigned) [I-121, Ac-PL3-Asp-Npg-B5-Asp-TfeGA-Aib-Ala-Phe-Lys*3-PyrS2-2F3MeF-BztA-GlnR*3-Ala-NH2], which IC50 is on record?
**A.** The IC50 was 1 to 5 µM.

**Q.** Which IC50 does the source give for `CC(=O)N1CCC[C@]12CC=CCCCC1(CCCC=CCCCOC(=O)N3CC[C@@]4(C3)NC(=O)[C@H](CCCCNC(=O)CC[C@@H](C(=O)N[C@@H](CC(C)C)C(=O)N[C@@H](CO)C(N)=O)NC(=O)[C@H](Cc3csc5ccccc35)NC(=O)[C@H](Cc3ccccc3C(F)(F)F)NC4=O)NC(=O)[C@H](Cc3ccccc3)NC(=O)[C@H](C)NC(=O)C(C)(C)NC(=O)[C@H](Cc3cccc(C(=O)O)c3)NC(=O)[C@H](CC(=O)O)NC1=O)NC(=O)[C@H](CC(C)(C)C)NC(=O)[C@H](CC(N)=O)NC2=O` (relative stereo) [I-144, Ac-PL3-Asn-Npg-B5-Asp-3COOHF-Aib-Ala-Phe-Lys*3-PyrS2-2F3MeF-BztA-GlnR*3-Leu-Ser-NH2] here?
**A.** Its IC50 is 1 to 5 µM.

**Q.** How did the IC50 turn out when `CC(=O)N1CCC[C@]12CC=CCCCC1(CCCC=CCCCOC(=O)N3CC[C@@]4(C3)NC(=O)[C@H](CCCCNC(=O)CC[C@@H](C(=O)N[C@@H](CC(C)C)C(N)=O)NC(=O)[C@H](Cc3csc5ccccc35)NC(=O)[C@H](Cc3ccccc3C(F)(F)F)NC4=O)NC(=O)[C@H](Cc3ccccc3)NC(=O)[C@H](C)NC(=O)[C@H](C)NC(=O)[C@H](Cc3cccc(C(=O)O)c3)NC(=O)[C@H](CC(=O)O)NC1=O)NC(=O)[C@H](CC1CCCCC1)NC(=O)[C@H](CC(=O)O)NC2=O` (single isomer, unassigned) [I-106, Ac-PL3-Asp-Cha-B5-Asp-3COOHF-Ala-Ala-Phe-Lys*3-PyrS2-2F3MeF-BztA-GlnR*3-Leu-NH2] was run?
**A.** Its IC50 is no more than 1 µM.

**Q.** `CC(=O)N1CCC[C@]12CC=CCCCC1(CCCC=CCCCOC(=O)N3CC[C@@]4(C3)NC(=O)[C@H](CCCCNC(=O)CC[C@@H](C(=O)N[C@@H](CC(C)C)C(=O)N[C@@H](CO)C(N)=O)NC(=O)[C@H](Cc3csc5ccccc35)NC(=O)[C@H](Cc3ccccc3C(F)(F)F)NC4=O)NC(=O)[C@H](Cc3ccccc3)NC(=O)[C@H](C)NC(=O)C3(CCC3)NC(=O)[C@H](Cc3cccc(C(=O)O)c3)NC(=O)[C@H](CC(=O)O)NC1=O)NC(=O)[C@H](CC(C)(C)C)NC(=O)[C@H](CC(=O)O)NC2=O` (relative stereo) [I-140, Ac-PL3-Asp-Npg-B5-Asp-3COOHF-Cbg-Ala-Phe-Lys*3-PyrS2-2F3MeF-BztA-GlnR*3-Leu-Ser-NH2] was tested. Which IC50 did it give?
**A.** The IC50 was no more than 1 µM.

**Q.** `CC(=O)N1CCC[C@]12CC=CCCCC1(CCCC=CCCCOC(=O)N3CC[C@@]4(C3)NC(=O)[C@H](CCCCNC(=O)CC[C@@H](C(=O)NC(C)(C)C(N)=O)NC(=O)[C@H](Cc3csc5ccccc35)NC(=O)[C@H](Cc3ccccc3C(F)(F)F)NC4=O)NC(=O)[C@H](Cc3ccccc3)NC(=O)[C@H](C)NC(=O)[C@H](C)NC(=O)[C@H](CN(CC(=O)O)CC(F)(F)F)NC(=O)[C@H](CC(=O)O)NC1=O)NC(=O)[C@H](CC(C)(C)C)NC(=O)[C@H](CC(=O)O)NC2=O` (single isomer, unassigned) [I-127, Ac-PL3-Asp-Npg-B5-Asp-TfeGA-Ala-Ala-Phe-Lys*3-PyrS2-2F3MeF-BztA-GlnR*3-Aib-NH2] was tested. Which IC50 did it give?
**A.** Its IC50 is 1 to 5 µM.

same assay, conditions: read-out: DLD1 4% Abs IC50; DLD1 reporter, 4%

**Q.** `CC(=O)N1CCC[C@]12CC=CCCCC1(CCCC=CCCCOC(=O)N3CC[C@@]4(C3)NC(=O)[C@H](CCCCn3cc(nn3)C[C@@H](C(=O)N[C@@H](C)C(N)=O)NC(=O)[C@H](Cc3csc5ccccc35)NC(=O)[C@H](Cc3ccsc3)NC4=O)NC(=O)[C@H](Cc3ccccc3)NC(=O)[C@H](C)NC(=O)[C@H](C)NC(=O)[C@H](Cc3cccc(C(=O)O)c3)NC(=O)[C@H](CC(=O)O)NC1=O)NC(=O)[C@H](CC(C)(C)C)NC(=O)[C@H](CC(=O)O)NC2=O` (stereo partly drawn) [I-337, Ac-PL3-Asp-Npg-B5-Asp-3COOHF-Ala-Ala-Phe-TriAzLys*3-PyrS2-3Thi-BztA-sAla*3-Ala-NH2] was tested. Which IC50 did it give?
**A.** Its IC50 is no more than 1 µM.

**Q.** Which IC50 does the source give for `CC(=O)N1CCC[C@]12CC=CCCCC1(CCCC=CCCCOC(=O)N3CC[C@@]4(C3)NC(=O)[C@H](CCCCNC(=O)CC[C@@H](C(=O)N[C@@H](CCC(=O)O)C(=O)N[C@@H](C)C(N)=O)NC(=O)[C@H](Cc3csc5ccccc35)NC(=O)[C@H](Cc3ccsc3)NC4=O)NC(=O)[C@H](Cc3ccccc3)NC(=O)[C@H](C)NC(=O)C(C)(C)NC(=O)[C@H](Cc3cccc(C(=O)O)c3)NC(=O)[C@H](CC(=O)O)NC1=O)NC(=O)[C@H](CC(C)(C)C)NC(=O)[C@H](CC(=O)O)NC2=O` (relative stereo) [I-342, Ac-PL3-Asp-Npg-B5-Asp-3COOHF-Aib-Ala-Phe-Lys*3-PyrS2-3Thi-BztA-GlnR*3-Glu-Ala-NH2] here?
**A.** The IC50 was no more than 1 µM.
